Experimental data taken from ChEMBL document CHEMBL1201862, “PubChem BioAssay data set” (2004).
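Assay format: 96-well plates, 48-hour exposure. The concentration for 50% growth inhibition is given as GI50.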 The source made the active and inactive calls. Cut-off read from the data, not from the text of the source: active = GI50 up to about 1.1 µM and inactive = higher.

What was measured:
Assay in all cases: NCI tumour cell line growth inhibition, 48 h
SF-539 = test system: SF-539
OVCAR-4 = test system: OVCAR-4
HOP-62 = test system: HOP-62
MDA-MB-231 = test system: MDA-MB-231
SW-620 = test system: SW-620
A549 = test system: A549
PC-3 = test system: PC-3
KM12 = test system: KM12
ACHN = test system: ACHN
NCI/ADR-RES = test system: NCI/ADR-RES
RPMI-8226 = test system: RPMI-8226
HOP-92 = test system: HOP-92
HCT-116 = test system: HCT-116
HT-29 = test system: HT-29
COLO 205 = test system: COLO 205
SN12C = test system: SN12C
786-0 = test system: 786-0
BT-549 = test system: BT-549
NCI-H460 = test system: NCI-H460
A498 = test system: A498

Measured: GI50

CN1C(=O)C(O)C[C@@H]1c1ccccc1 (some centres undefined)
inactive: SF-539 > 100 µM | OVCAR-4 > 100 µM | HOP-62 > 100 µM | MDA-MB-231 > 100 µM | SW-620 > 100 µM | A549 > 100 µM | PC-3 > 100 µM | KM12 > 100 µM | ACHN > 100 µM | NCI/ADR-RES > 100 µM | RPMI-8226 > 100 µM | HOP-92 > 100 µM | HCT-116 > 100 µM | HT-29 > 100 µM | COLO 205 > 100 µM | SN12C > 100 µM | 786-0 > 100 µM | BT-549 > 100 µM

COc1ccc(C2Oc3c(cccc3OC)C=C2[N+](=O)[O-])cc1 (centres undefined)
inactive: OVCAR-4 2.96 µM | HOP-62 2.49 µM | MDA-MB-231 3.3 µM | A549 11.9 µM | PC-3 1.69 µM | KM12 1.92 µM | ACHN 1.74 µM | NCI/ADR-RES 2.58 µM | RPMI-8226 2.01 µM | HCT-116 1.28 µM | HT-29 1.63 µM | COLO 205 2.51 µM | SN12C 2.02 µM | NCI-H460 1.81 µM | 786-0 2.31 µM | BT-549 1.36 µM

CN1/C(=N\c2ccccc2)S/C1=N/c1ccccc1
inactive: SF-539 > 100 µM | OVCAR-4 59.7 µM | HOP-62 > 100 µM | SW-620 > 100 µM | A549 86.1 µM | A498 96.4 µM | KM12 52.2 µM | ACHN 70.6 µM | RPMI-8226 39.5 µM | HOP-92 10.2 µM | HCT-116 47.6 µM | HT-29 55.5 µM | COLO 205 61 µM | NCI-H460 > 100 µM | 786-0 > 100 µM

CCCCCCCCCC1CC(=O)Oc2cccc(O)c21 (centres undefined)
inactive: SF-539 4.18 µM | OVCAR-4 33.7 µM | HOP-62 34.3 µM | SW-620 29.2 µM | A549 11.5 µM | A498 22.1 µM | KM12 12.5 µM | ACHN 30.3 µM | RPMI-8226 28.4 µM | HOP-92 34 µM | HCT-116 36.2 µM | HT-29 24.1 µM | COLO 205 16.4 µM | SN12C 6.85 µM | NCI-H460 9.91 µM | 786-0 10.1 µM

CC1(C)C2C=CC1(C)C1(CC2)OCCO1 (centres undefined)
inactive: SF-539 > 100 µM | OVCAR-4 > 100 µM | HOP-62 > 100 µM | MDA-MB-231 > 100 µM | SW-620 > 100 µM | A498 > 100 µM | PC-3 > 100 µM | KM12 > 100 µM | ACHN > 100 µM | NCI/ADR-RES > 100 µM | RPMI-8226 > 100 µM | HCT-116 > 100 µM | HT-29 > 100 µM | COLO 205 > 100 µM | SN12C > 100 µM | NCI-H460 > 100 µM | 786-0 > 100 µM

COc1ccccc1Cn1[nH]c(=O)c2cc([N+](=O)[O-])ccc21
inactive: SF-539 > 100 µM | OVCAR-4 > 100 µM | HOP-62 > 100 µM | MDA-MB-231 64.4 µM | SW-620 84.9 µM | A549 93.1 µM | A498 26.5 µM | KM12 > 100 µM | ACHN 75 µM | NCI/ADR-RES 75.5 µM | RPMI-8226 > 100 µM | HOP-92 24.7 µM | HCT-116 > 100 µM | HT-29 > 100 µM | COLO 205 > 100 µM | SN12C > 100 µM | NCI-H460 > 100 µM | 786-0 42 µM

CCOC(=O)c1nc2ccc(C(F)(F)F)cc2nc1NCc1ccc(F)cc1
inactive: SF-539 80 µM | OVCAR-4 12 µM | HOP-62 47.3 µM | MDA-MB-231 32.1 µM | SW-620 34.1 µM | A549 42.8 µM | PC-3 29.4 µM | KM12 58.7 µM | ACHN 31.6 µM | NCI/ADR-RES 24 µM | RPMI-8226 23.5 µM | HOP-92 4.83 µM | HCT-116 35.9 µM | HT-29 35.4 µM | COLO 205 27 µM | SN12C 28.8 µM | NCI-H460 19.2 µM | 786-0 30.1 µM

Cc1n[nH]c(=O)n1/N=C/c1ccc(Cl)cc1
inactive: SF-539 78.2 µM | OVCAR-4 98.4 µM | HOP-62 32.5 µM | SW-620 68.7 µM | A549 61.2 µM | A498 40 µM | KM12 > 100 µM | ACHN > 100 µM | NCI/ADR-RES 49.3 µM | RPMI-8226 > 100 µM | HOP-92 32.9 µM | HCT-116 64.4 µM | COLO 205 43.3 µM | SN12C 70.6 µM | NCI-H460 59.7 µM | 786-0 > 100 µM | BT-549 23.1 µM

CCOP(=O)(OCC)C(C)(C)OC(=O)NC(F)(F)F
inactive: SF-539 > 100 µM | OVCAR-4 > 100 µM | HOP-62 > 100 µM | MDA-MB-231 > 100 µM | SW-620 > 100 µM | A549 > 100 µM | PC-3 > 100 µM | KM12 > 100 µM | ACHN > 100 µM | NCI/ADR-RES > 100 µM | RPMI-8226 > 100 µM | HCT-116 > 100 µM | HT-29 > 100 µM | COLO 205 > 100 µM | SN12C > 100 µM | NCI-H460 > 100 µM | 786-0 > 100 µM | BT-549 > 100 µM

O=C(c1ccccc1)N1CCN(C(=S)NC2CCCCC2)C1=S
inactive: SF-539 13.5 µM | OVCAR-4 18.9 µM | HOP-62 18 µM | MDA-MB-231 7.03 µM | SW-620 21.6 µM | A549 13.4 µM | A498 19 µM | KM12 16 µM | ACHN 24.3 µM | NCI/ADR-RES 17.7 µM | HOP-92 15.5 µM | HCT-116 16.1 µM | HT-29 20.2 µM | COLO 205 18.5 µM | SN12C 17.8 µM | NCI-H460 21.4 µM | 786-0 21.8 µM | BT-549 17.1 µM

CCOC(=O)C1(C)CCC(C(=O)OC)C1=O (centres undefined)
inactive: SF-539 > 100 µM | OVCAR-4 > 100 µM | HOP-62 > 100 µM | A549 > 100 µM | A498 > 100 µM | KM12 > 100 µM | ACHN > 100 µM | RPMI-8226 > 100 µM | HOP-92 > 100 µM | HCT-116 57 µM | HT-29 65.5 µM | COLO 205 44.1 µM | SN12C 42.9 µM | NCI-H460 15.3 µM | 786-0 > 100 µM

Fc1ccc(C2NC(=S)NC3=C2CCOc2c3ccc3ccccc23)cc1 (centres undefined)
inactive: SF-539 > 100 µM | OVCAR-4 24.7 µM | HOP-62 64.9 µM | SW-620 39.1 µM | A549 31.3 µM | A498 18.9 µM | PC-3 50.8 µM | KM12 21.8 µM | ACHN 58.7 µM | NCI/ADR-RES 18.9 µM | RPMI-8226 19.8 µM | HOP-92 > 100 µM | HCT-116 4.85 µM | COLO 205 6.67 µM | SN12C 94.8 µM | NCI-H460 30.7 µM | 786-0 33 µM | BT-549 58.1 µM

O=C(CCCn1ccnc1[N+](=O)[O-])NCCn1ccnc1[N+](=O)[O-]
inactive: SF-539 > 100 µM | OVCAR-4 > 100 µM | HOP-62 > 100 µM | SW-620 > 100 µM | A549 > 100 µM | PC-3 > 100 µM | KM12 > 100 µM | ACHN > 100 µM | NCI/ADR-RES > 100 µM | RPMI-8226 > 100 µM | HCT-116 > 100 µM | HT-29 > 100 µM | COLO 205 > 100 µM | SN12C > 100 µM | NCI-H460 > 100 µM | 786-0 > 100 µM | BT-549 > 100 µM

COc1ccc(CCn2ccc(=O)c(O)c2C)cc1OC
inactive: SF-539 26.2 µM | HOP-62 17.5 µM | MDA-MB-231 1.4 µM | SW-620 41.1 µM | A549 21.4 µM | PC-3 56.2 µM | KM12 40.3 µM | ACHN 5.26 µM | NCI/ADR-RES 7.45 µM | RPMI-8226 34 µM | HOP-92 20.4 µM | HCT-116 37.2 µM | HT-29 18.5 µM | COLO 205 26.7 µM | NCI-H460 5.81 µM | 786-0 5 µM | BT-549 52.4 µM

CCOC(=O)Nn1c(C)nnc1CC#N
inactive: SF-539 > 100 µM | HOP-62 > 100 µM | MDA-MB-231 > 100 µM | SW-620 > 100 µM | A549 > 100 µM | PC-3 > 100 µM | KM12 > 100 µM | ACHN > 100 µM | NCI/ADR-RES > 100 µM | RPMI-8226 > 100 µM | HOP-92 58.9 µM | HCT-116 > 100 µM | HT-29 > 100 µM | SN12C > 100 µM | NCI-H460 > 100 µM | 786-0 > 100 µM | BT-549 > 100 µM

CCOc1ccc(/C=C2\N=C(c3ccc([N+](=O)[O-])cc3)OC2=O)cc1
inactive: SF-539 > 100 µM | OVCAR-4 > 100 µM | HOP-62 > 100 µM | MDA-MB-231 > 100 µM | SW-620 > 100 µM | A549 > 100 µM | A498 > 100 µM | PC-3 > 100 µM | KM12 > 100 µM | ACHN > 100 µM | RPMI-8226 > 100 µM | HOP-92 > 100 µM | HCT-116 > 100 µM | HT-29 > 100 µM | COLO 205 > 100 µM | SN12C > 100 µM | NCI-H460 > 100 µM | 786-0 > 100 µM | BT-549 > 100 µM
